Measurements taken from ChEMBL document CHEMBL5154893, “Design, Synthesis, and Biological Evaluation of Potent 20S Proteasome Activators for the Potential Treatment of α-Synucleinopathies” (J Med Chem, 2022).

What was measured:
[1] = molecular target: T1, 20S proteasome (Homo sapiens) (UniProt P49721+P20618+P28074+P28062+P28065+P28072+P25786+P25787+P25788+P25789+P28066+P60900+O14818+Q8TAA3+P40306+A5LHX3+P49720+P28070+Q99436); experiment: Activation of human 20S proteosome at trypsin-like site assessed as maximum fold change in substrate degradation using Boc-LLR-AMC as flurogenic substrate preincubated for 15 mins followed by substrate addition and measured after 1 hr by spectrometric analysis relative to control; format: protein-complex assay; settings: filed as activator
Homo sapiens [2] = species on record: Homo sapiens; experiment: Activation of human 20S-proteosome mediated full length alpha-synuclein degradation by measuring remaining protein at 5 uM incubated for 45 mins by Western blot analysis relative to control
[3] = molecular target: T1, 20S proteasome (Homo sapiens); experiment: Activation of human 20S proteosome at chymotrypsin like site assessed as substrate degradation using Suc-LLVY-AMC as flurogenic substrate preincubated for 15 mins followed by substrate addition and measured after 1 hr by spectrometric analysis; format: protein-complex assay
HEK293T [4] = experiment: Activation of 20S proteasome mediated full length alpha-synuclein A53T mutant degradation expressed in HEK293T cells assessed as residual protein at 5 uM incubated for 24 hrs by Western blot analysis relative to control; format: cell-based; settings: Homo sapiens
[5] = molecular target: T1, 20S proteasome (Homo sapiens); experiment: Activation of human 20S proteosome at caspase-like site assessed as substrate degradation using Z-LLE-AMC as flurogenic substrate preincubated for 15 mins followed by substrate addition and measured after 1 hr by spectrometric analysis; format: protein-complex assay
[6] = molecular target: T1, 20S proteasome (Homo sapiens); experiment: Activation of human 20S proteosome assessed as maximum fold change in substrate degradation using Suc-LLVY-AMC/Z-LLE-AMC/Boc-LLR-AMC as flurogenic substrate preincubated for 15 mins followed by substrate addition and measured after 1 hr by spectrometric analysis relative to control; format: protein-complex assay; settings: filed as activator
Homo sapiens [7] = species on record: Homo sapiens; experiment: Activation of human 20S-proteosome mediated full length alpha-synuclein degradation by measuring remaining protein at 2.5 uM incubated for 45 mins by Western blot analysis relative to control
[8] = molecular target: T1, 20S proteasome (Homo sapiens); experiment: Activation of human 20S proteosome at trypsin-like site assessed as substrate degradation using Boc-LLR-AMC as flurogenic substrate preincubated for 15 mins followed by substrate addition and measured after 1 hr by spectrometric analysis; format: protein-complex assay
Homo sapiens [9] = species on record: Homo sapiens; experiment: Activation of human 20S-proteosome mediated full length alpha-synuclein degradation by measuring remaining protein at 15 uM incubated for 45 mins by Western blot analysis relative to control
[10] = molecular target: T1, 20S proteasome (Homo sapiens); experiment: Activation of human 20S proteosome at caspase-like site assessed as maximum fold change in substrate degradation using Z-LLE-AMC as flurogenic substrate preincubated for 15 mins followed by substrate addition and measured after 1 hr by spectrometric analysis relative to control; format: protein-complex assay; settings: filed as activator
Homo sapiens [11] = species on record: Homo sapiens; experiment: Activation of human 20S-proteosome mediated full length alpha-synuclein degradation by measuring remaining protein at 10 uM incubated for 45 mins by Western blot analysis relative to control
Homo sapiens [12] = species on record: Homo sapiens; experiment: Activation of human 20S-proteosome mediated degradation of full length wild type alpha-synuclein at 10 uM incubated for 45 mins by Western blot analysis relative to control
HEK-293T = experiment: Cytotoxicity in human HEK293T cells assessed as reduction in cell viability at 15 uM incubated for 16 hrs by CellTiter-glo assay; format: toxicity, cell-based
[13] = molecular target: T1, 20S proteasome (Homo sapiens); experiment: Activation of human 20S proteosome at chymotrypsin like site assessed as maximum fold change in substrate degradation using Suc-LLVY-AMC as flurogenic substrate preincubated for 15 mins followed by substrate addition and measured after 1 hr by spectrometric analysis relative to control; format: protein-complex assay; settings: filed as activator
[14] = molecular target: T1, 20S proteasome (Homo sapiens); experiment: Activation of human 20S proteosome assessed as substrate degradation using Suc-LLVY-AMC/Z-LLE-AMC/Boc-LLR-AMC as flurogenic substrate preincubated for 15 mins followed by substrate addition and measured after 1 hr by spectrometric analysis; format: protein-complex assay
Homo sapiens [15] = species on record: Homo sapiens; experiment: Activation of human 26S proteosome assessed as increase in fold change in proteolytic degradation using SUC-ANW-AMC/Z-LLE-AMC/Boc-LRRAMC as flurogenic substrate at 80 uM preincubated for 15 mins followed by substrate addition and measured after 1 hr by spectrometric analysis relative to control; settings: filed as activator
HEK293T [16] = experiment: Activation of 20S proteasome mediated full length alpha-synuclein A53T mutant degradation expressed in HEK293T cells assessed as residual protein at 15 uM incubated for 24 hrs by Western blot analysis relative to control; format: cell-based; settings: Homo sapiens, filed as activator
Homo sapiens [17] = species on record: Homo sapiens; experiment: Activation of human 20S-proteosome mediated degradation of full length wild type alpha-synuclein at 15 uM incubated for 45 mins by Western blot analysis relative to control; settings: filed as activator

Row | fold change (FC) [1] | EC200 ([3]; filed as activator) [µM] | EC200 ([5]; filed as activator) [µM] | fold change (FC) [6] | EC200 ([8]; filed as activator) [µM] | fold change (FC) [10] | fold change (FC) [13] | EC200 ([14]; filed as activator) [µM] | EC200 [3] [µM] | EC200 [5] [µM] | EC200 [8] [µM] | EC200 [14] [µM] | Compound | other results
1 | 6 | 0.7 | 1.8 | 11 | 0.3 | 9.4 | 9.4 | 0.4 | – | – | – | – | O=C(CCN1c2ccccc2Sc2ccc(Cl)cc21)N(c1ccc(F)cc1)c1ccc(F)cc1 | Activity (Homo sapiens [2]): 51%; Activity (HEK293T [4]): 67%; Activity (Homo sapiens [7]): 69%; Activity (Homo sapiens [9]): 19%; Activity (Homo sapiens [11]): 27%; Activity (Homo sapiens [12]): 73%; Activity (HEK-293T): > 80%
2 | – | – | – | – | – | – | – | – | – | – | – | – | CCOC(=O)[C@]1(c2ccccc2)N=C(c2ccc(OC)cc2)N(Cc2ccccc2)[C@@H]1c1ccc(NCc2ccccc2)cc1 | Activity (Homo sapiens [9]): 22%
3 | 2 | – | – | 2.5 | 80 | – | – | 40 | > 80 | > 80 | – | – | O=C(CCN1c2ccccc2Sc2ccc(Cl)cc21)Nc1ccccc1 | –
4 | – | – | – | – | – | – | – | – | > 80 | > 80 | > 80 | > 80 | Oc1ccc(CN2c3ccccc3Sc3ccc(Cl)cc32)cc1 | –
5 | 8 | 1.1 | 1.2 | 8 | 1.6 | 12 | 9 | 1.1 | – | – | – | – | O=[N+]([O-])c1cccc(CN2c3ccccc3Sc3ccc(Cl)cc32)c1 | –
6 | – | – | – | – | – | – | – | – | > 80 | > 80 | > 80 | > 80 | NC(=O)CCCCN1c2ccccc2Sc2ccc(Cl)cc21 | –
7 | 15 | 1.9 | 2.7 | 9 | 2.6 | 7 | 1.2 | 1.4 | – | – | – | – | COC(=O)c1ccc(CN2c3ccccc3Sc3ccc(Cl)cc32)cc1 | fold change (FC) (Homo sapiens [15]): 2; Activity (Homo sapiens [9]; filed as activator): 33%; Activity (HEK293T [16]): 25%
8 | – | – | – | – | – | – | – | – | > 80 | > 80 | > 80 | > 80 | CN(C(=O)CCN1c2ccccc2Sc2ccc(Cl)cc21)c1ccc(F)cc1 | –
9 | 2 | – | 1.3 | 4 | 5.4 | 4 | – | 1.5 | > 80 | – | – | – | COc1cccc(CN2c3ccccc3Sc3ccc(Cl)cc32)c1 | –
10 | – | – | – | – | – | – | – | – | > 80 | > 80 | > 80 | > 80 | N#CCCCCN1c2ccccc2Sc2ccc(Cl)cc21 | –
11 | – | – | – | – | – | – | – | – | > 80 | > 80 | > 80 | > 80 | CC(C)(C)OC(=O)c1ccc(CN2c3ccccc3Sc3ccc(Cl)cc32)cc1 | –
12 | 2 | 2.8 | – | 2 | 3.1 | – | 3 | 1.5 | – | > 80 | – | – | Clc1ccc2c(c1)N(Cc1ccccc1)c1ccccc1S2 | –
13 | – | 7 | – | 4 | – | – | 8 | 13.5 | – | > 80 | > 80 | – | CN(C)CCCN1c2ccccc2Sc2ccc(Cl)cc21 | fold change (FC) (Homo sapiens [15]): 2; Activity (Homo sapiens [9]; filed as activator): 34%; Activity (Homo sapiens [17]): 80%
14 | 10 | 6.5 | 3.8 | 8 | 9.2 | 10 | 9 | 3.6 | – | – | – | – | Nc1cccc(CN2c3ccccc3Sc3ccc(Cl)cc32)c1 | –
15 | 8 | 2.4 | 9.7 | 6 | 1.9 | 4 | 6 | 2.4 | – | – | – | – | COC(=O)c1cccc(CN2c3ccccc3Sc3ccc(Cl)cc32)c1 | –
16 | – | – | – | – | – | – | – | – | > 80 | > 80 | > 80 | > 80 | CN(C)C(=O)CCN1c2ccccc2Sc2ccc(Cl)cc21 | –
17 | – | – | – | – | – | – | – | – | > 80 | > 80 | > 80 | > 80 | CC(=O)Oc1ccc(CN2c3ccccc3Sc3ccc(Cl)cc32)cc1 | –
